Tests used:
[1] = Hepatocytes stability, human; format: in vitro ADME
[2] = Rat PK; format: in vivo; details: iv 2 mg/kg
[3] = Hepatocytes stability, mouse; format: in vitro ADME
[4] = Liver microsome stability, rat; format: in vitro ADME; details: liver microsomes
[5] = Liver microsome stability, mouse; format: in vitro ADME; details: liver microsomes
[6] = Mouse PK; format: in vivo; details: iv 3 mg/kg
[7] = Hepatocytes stability, rat; format: in vitro ADME
[8] = Liver microsome stability, human; format: in vitro ADME; details: liver microsomes
[9] = target: SARS-CoV-2 M^pro (Severe acute respiratory syndrome coronavirus 2, UniProt P0DTD1); assay: SARS-CoV-2 Mpro enzymatic assay; format: biochemical
[10] = Predicted human clearance by simple allometric scaling; details: simple allometric scaling method
[11] = test system: HCoV-OC43; format: in vivo; details: intraperitoneal injection, 7 days, 6 neonatal mice per group
[12] = vehicle 40% PEG400 + 60 %saline

**Q.** Which CLint scaled [1] does the source give for CC(C)(C)[C@H](NC(=O)C(F)(F)F)C(=O)N1C[C@@H]2CCC[C@@H]2[C@H]1C(=O)N[C@H](C#N)C[C@@H]1CCNC1=O [2a] here?
**A.** < 1.07 L/h/kg

**Q.** What about the CL ([2]; vehicle saline) of the same compound?
**A.** 75.4 mL min^−1 kg^−[1]

**Q.** What about the CLint scaled [3] of the same compound?
**A.** 26.1 L/h/kg

**Q.** What about the CLint scaled [4] of the same compound?
**A.** < 1.04 L/h/kg

**Q.** And the CLint scaled [5]?
**A.** 15.7 L/h/kg

**Q.** What about the CL ([6]; vehicle saline) of the same compound?
**A.** 79.3 mL min^−1 kg^−[1]

**Q.** What about the CLint scaled [7] of the same compound?
**A.** 1.92 L/h/kg

**Q.** And the CLint scaled [8]?
**A.** 0.78 L/h/kg

**Q.** For N#C[C@H](C[C@@H]1CCNC1=O)NC(=O)[C@@H]1[C@H]2CCC[C@H]2CN1C(=O)[C@@H](NC(=O)C(F)(F)F)C1CCCCC1 [3a], which CLint scaled [1] is on record?
**A.** < 1.07 L/h/kg

**Q.** And the CL ([2]; vehicle saline)?
**A.** 62.7 mL min^−1 kg^−[1]

**Q.** And the CLint scaled [3]?
**A.** 27.3 L/h/kg

**Q.** And the CLint scaled [4]?
**A.** < 1.04 L/h/kg

**Q.** And the CLint scaled [5]?
**A.** 12.9 L/h/kg

**Q.** And the CL ([6]; vehicle saline)?
**A.** 92.2 mL min^−1 kg^−[1]

**Q.** And the CLint scaled [7]?
**A.** 3.06 L/h/kg

**Q.** What about the CLint scaled [8] of the same compound?
**A.** 1.14 L/h/kg

**Q.** With N#C[C@H](C[C@@H]1CCNC1=O)NC(=O)[C@@H]1[C@H]2CCC[C@H]2CN1C(=O)[C@@H](NC(=O)C(F)(F)F)c1ccc(F)cc1 [3b] as the compound, how does the “Fold weaker in enzymatic potency relative to 2a” value ([9]; relative to 2a) read?
**A.** 4 fold

**Q.** For CC(=O)N[C@H](C(=O)N1C[C@@H]2CCC[C@@H]2[C@H]1C(=O)N[C@H](C#N)C[C@@H]1CCNC1=O)C1CCCCC1 [3c], which “Folds loss in enzymatic and cell potencies” value ([9]; P3 cap modifications, enzymatic and cell potencies) is on record?
**A.** 3–10 folds

**Q.** For CC(C)(C)NC(=O)C(=O)[C@H](C[C@@H]1CCNC1=O)NC(=O)[C@@H]1[C@H]2CCC[C@H]2CN1C(=O)[C@@H](NC(=O)C(F)(F)F)C1CCCCC1 [4a], which Predicted human clearance [10] is on record?
**A.** about 2.9 ml/min/kg

**Q.** What about the CLint scaled [1] of the same compound?
**A.** < 1.07 L/h/kg

**Q.** And the CL [2, 12]?
**A.** 2.55 mL min^−1 kg^−[1]

**Q.** And the CLint scaled [3]?
**A.** 61.4 L/h/kg

**Q.** And the CLint scaled [4]?
**A.** 1.5 L/h/kg

**Q.** What about the CLint scaled [5] of the same compound?
**A.** 12.7 L/h/kg

**Q.** What about the CL [6, 12] of the same compound?
**A.** 2.50 mL min^−1 kg^−[1]

**Q.** And the “Mice survived at day 14” value ([11]; high dosing group)?
**A.** 6/6

**Q.** And the Mice survived ([11]; low dosing group)?
**A.** four out of six

**Q.** And the CLint scaled [7]?
**A.** 2.52 L/h/kg

**Q.** Which CL [6, 12] does the source give for CC(C)(C)NC(=O)C(=O)[C@H](C[C@@H]1CCNC1=O)NC(=O)[C@@H]1[C@H]2CCC[C@H]2CN1C(=O)[C@@H](NC(=O)C(F)(F)F)C1CCCC1 [4c] here?
**A.** 5.06 mL min^−1 kg^−[1]

**Q.** Which results are given for CC(C)(C)[C@H](NC(=O)C(F)(F)F)C(=O)N1C[C@H]2[C@@H]([C@H]1C(=O)N[C@H](C#N)C[C@@H]1CCNC1=O)C2(C)C [nirmatrelvir, reference compound]?
**A.** CLint scaled [1]: < 1.07 L/h/kg; CL ([2]; vehicle saline): 42.0 mL min^−1 kg^−[1]; CLint scaled [3]: 10.1 L/h/kg; CLint scaled [4]: < 1.04 L/h/kg; CLint scaled [5]: 19.7 L/h/kg; CL ([6]; vehicle saline): 30.2 mL min^−1 kg^−[1]; CLint scaled [7]: < 1.79 L/h/kg; CLint scaled [8]: 1.74 L/h/kg

Source: article PMC10176891 (Bioorganic & Medicinal Chemistry Letters, 2023)
